The test has as its system IL-13 induced pSTAT6 in BEAS-2B human cell line. As to the kind of experiment: Inhibition of IL-13 induced pSTAT6 in BEAS. The conditions noted are these: IL-13 induced pSTAT6, BEAS-2B cells, ELISA. The test is classed as cell-based. In a few lines: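 BEAS-2B cells, cultured 48 h, were pretreated with compounds 30 min, then stimulated with IL-13 for 30 min. Phospho-STAT6 (Tyr641) in lysates quantified by sandwich ELISA; 11-point 5-fold series from 10 μM […], duplicate, IC50 fitted with QC (Z′≥0.35, Hill slope 0.5-5, S:B>2).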
In general terms: ELISA stands for enzyme-linked immunosorbent assay.

As for `CN(C)CCCNC(=O)c1nn(-c2cc3c(cc2OC(F)F)NCCO3)c2cc(-c3cnn4cccnc34)ncc12` [Example 78, 1-(6-(difluoromethoxy)-3,4-dihydro-2H-benzo[b][1,4]oxazin-7-yl)-N-(3-(dimethylamino)propyl)-6-(pyrazolo[1,5-a]pyrimidin-3-yl)-1H-pyrazolo[4,3-c]pyridine-3-carboxamide], the IC50 was 5.01 to 50.1 nM. With `COc1cc2c(cc1-n1nc(C(=O)NCCN3CCC(C(N)=O)CC3)c3cnc(-c4cnn5cccnc45)cc31)OCCN2` [Example 79, N-(2-(4-carbamoylpiperidin-1-yl)ethyl)-1-(6-methoxy-3,4-dihydro-2H-benzo[b][1,4]oxazin-7-yl)-6-(pyrazolo[1,5-a]pyrimidin-3-yl)-1H-pyrazolo[4,3-c]pyridine-3-carboxamide] the figure was 50.1 to 501 nM; with `COc1cc2c(cc1-n1nc(C(=O)NCCN3CC[C@@H](C(N)=O)C3)c3cnc(-c4cnn5cccnc45)cc31)OCCN2` [Example 80, (R)-N-(2-(3-carbamoylpyrrolidin-1-yl)ethyl)-1-(6-methoxy-3,4-dihydro-2H-benzo[b][1,4]oxazin-7-yl)-6-(pyrazolo[1,5-a]pyrimidin-3-yl)-1H-pyrazolo[4,3-c]pyridine-3-carboxamide], 50.1 to 501 nM; with `COc1cc2c(cc1-n1nc(C(=O)NCCN3CC4(COC(=O)C4)C3)c3cnc(-c4cnn5cccnc45)cc31)OCCN2` [Example 81, 1-(6-methoxy-3,4-dihydro-2H-benzo[b][1,4]oxazin-7-yl)-N-(2-(7-oxo-6-oxa-2-azaspiro[3.4]octan-2-yl)ethyl)-6-(pyrazolo[1,5-a]pyrimidin-3-yl)-1H-pyrazolo[4,3-c]pyridine-3-carboxamide], 5.01 to 50.1 nM. Then `COc1cc2c(cc1-n1nc(C(=O)NCCN3CCC4(COC4)C3)c3cnc(-c4cnn5cccnc45)cc31)OCCN2` [Example 82, N-(2-(2-oxa-6-azaspiro[3.4]octan-6-yl)ethyl)-1-(6-methoxy-3,4-dihydro-2H-benzo[b][1,4]oxazin-7-yl)-6-(pyrazolo[1,5-a]pyrimidin-3-yl)-1H-pyrazolo[4,3-c]pyridine-3-carboxamide], with 5.01 to 50.1 nM; and `COc1cc2c(cc1-n1nc(C(=O)NCCN3CC(=O)OC(C)C3)c3cnc(-c4cnn5cccnc45)cc31)OCCN2` (stereo not drawn) [Example 83, 1-(6-methoxy-3,4-dihydro-2H-benzo[b][1,4]oxazin-7-yl)-N-(2-(2-methyl-6-oxomorpholino)ethyl)-6-(pyrazolo[1,5-a]pyrimidin-3-yl)-1H-pyrazolo[4,3-c]pyridine-3-carboxamide], with 50.1 to 501 nM. For the molecule `COc1cc2c(cc1-n1nc(NC(=O)C3CCN(C)CC3)c3cnc(-c4cnn5cccnc45)cc31)OCCN2` [Example 84, N-(1-(6-methoxy-3,4-dihydro-2H-benzo[b][1,4]oxazin-7-yl)-6-(pyrazolo[1,5-a]pyrimidin-3-yl)-1H-pyrazolo[4,3-c]pyridin-3-yl)-1-methylpiperidine-4-carboxamide], the IC50 was 5.01 to 50.1 nM. Then `COc1cc2c(cc1-n1nc(C(=O)NCCN3CCC(C4(O)COC4)CC3)c3cnc(-c4cnn5cccnc45)cc31)OCCN2` [Example 85, N-(2-(4-(3-hydroxyoxetan-3-yl)piperidin-1-yl)ethyl)-1-(6-methoxy-3,4-dihydro-2H-benzo[b][1,4]oxazin-7-yl)-6-(pyrazolo[1,5-a]pyrimidin-3-yl)-1H-pyrazolo[4,3-c]pyridine-3-carboxamide], with 5.01 to 50.1 nM. With `COc1cc2c(cc1-n1nc(NC(=O)OCCSC3CCOC3=O)c3cnc(-c4cnn5cccnc45)cc31)CCCN2` (stereo not drawn) [Example 86, 2-((2-oxotetrahydrofuran-3-yl)thio)ethyl (1-(7-methoxy-1,2,3,4-tetrahydroquinolin-6-yl)-6-(pyrazolo[1,5-a]pyrimidin-3-yl)-1H-pyrazolo[4,3-c]pyridin-3-yl)carbamate] the figure was 5.01 to 50.1 nM.

Broadly, the IC50 is the midpoint of a concentration-inhibition curve.

Source of the values: patent US20260085077A1, “HETEROCYCLIC DERIVATIVES AS JANUS KINASE INHIBITORS” (CHIESI FARMACEUTICI S.P.A., priority 2022, published 2026).
